From PubChem BioAssay (NCI)
Several values for one entry are separate records, joined by “and”; a condition that tells them apart may be missing. Equal entries are not always repeated.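 Following 48 hours of exposure in 96-well plates, responses at five concentrations were used to interpolate endpoints linearly. GI50: concentration for 50% inhibition of growth. TGI: concentration producing complete growth inhibition.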

Legend:
Experiment in all cases: DTP human tumour cell line panel, 48 h
SK-MEL-28 melanoma = tested on: SK-MEL-28 melanoma
PC-3 prostate = tested on: PC-3 prostate
NCI-H23 lung = tested on: NCI-H23 lung
SR leukemia = tested on: SR leukemia
TK-10 renal = tested on: TK-10 renal
OVCAR-4 ovarian = tested on: OVCAR-4 ovarian
A498 renal = tested on: A498 renal
SF-268 CNS = tested on: SF-268 CNS
UO-31 renal = tested on: UO-31 renal
SNB-75 CNS = tested on: SNB-75 CNS
MDA-MB-435 = tested on: MDA-MB-435
HS 578T breast = tested on: HS 578T breast
K-562 leukemia = tested on: K-562 leukemia
HCT-15 colon = tested on: HCT-15 colon
NCI/ADR-RES ovarian = tested on: NCI/ADR-RES ovarian
SK-MEL-2 melanoma = tested on: SK-MEL-2 melanoma
SW-620 colon = tested on: SW-620 colon
OVCAR-3 ovarian = tested on: OVCAR-3 ovarian
HOP-62 NSCLC = tested on: HOP-62 NSCLC

Row | SMILES | TGI (SK-MEL-28 melanoma) [µM] | TGI (PC-3 prostate) [µM] | TGI (NCI-H23 lung) [µM] | TGI (SR leukemia) [µM] | TGI (TK-10 renal) [µM] | TGI (OVCAR-4 ovarian) [µM] | TGI (A498 renal) [µM] | TGI (SF-268 CNS) [µM] | TGI (UO-31 renal) [µM] | TGI (SNB-75 CNS) [µM] | TGI (MDA-MB-435) [µM] | TGI (HS 578T breast) [µM] | TGI (K-562 leukemia) [µM] | TGI (HCT-15 colon) [µM] | TGI (NCI/ADR-RES ovarian) [µM] | TGI (SK-MEL-2 melanoma) [µM] | TGI (SW-620 colon) [µM] | TGI (OVCAR-3 ovarian) [µM] | TGI (HOP-62 NSCLC) [µM] | GI50 (HS 578T breast)
1 | COc1cc(/C=C/C2=NN(c3cccc(S(=O)(=O)O)c3)C3(C2)C(Cl)C(=O)N3c2nc3ccccc3s2)ccc1O (configuration not stated) | 76.6 | > 100 | 29.6 | 34.8 | 28.2 | 30.4 | > 100 | 50.5 | 33.6 | 60 | 32.1 | > 100 | 61.9 | 37.4 | 99.4 | > 100 | 48 | – | – | –
2 | CN(C)Cc1cc(N=Nc2ccccc2Cl)cc(CN(C)C)c1O | 33.6 | > 100 | > 100 | > 100 | > 100 | > 100 | > 100 | > 100 | > 100 | > 100 | > 100 | > 100 | > 100 | > 100 | > 100 | – | > 100 | > 100 | > 100 | –
3 | COC1OC(COC(=O)NCCCCC(=O)C(F)(F)F)C(O)C(O)C1O (configuration not stated) | > 100 | > 100 | > 100 | > 100 | > 100 | > 100 | – | > 100 | > 100 | > 100 | > 100 | > 100 | > 100 | > 100 | > 100 | > 100 | > 100 | > 100 | > 100 | –
4 | O=C(NCCNCCO)N/N=C/c1ccc([N+](=O)[O-])cc1 | > 100 | > 100 | > 100 | > 100 | > 100 | – | > 100 | > 100 | > 100 | 98.5 | > 100 | > 100 | > 100 | > 100 | > 100 | > 100 | > 100 | > 100 | > 100 | –
5 | O=[N+]([O-])c1ccc(N=NN2CCCC2)cc1 | – | > 100 | > 100 | > 100 | > 100 | > 100 | > 100 | > 100 | > 100 | > 100 | > 100 | > 100 | > 100 | > 100 | > 100 | > 100 | > 100 | > 100 | > 100 | –
6 | NC1CNC(=O)c2cscc21 (configuration not stated) | > 100 | > 100 | > 100 | > 100 | – | > 100 | > 100 | > 100 | > 100 | – | > 100 | > 100 | > 100 | > 100 | > 100 | – | > 100 | > 100 | – | –
7 | CC(C)N1CSC(=S)N(Cc2ccccc2)C1 | > 10 | > 10 | > 10 | 4.81 | > 10 | > 10 | > 10 | > 10 | – | > 10 | > 10 | > 10 | > 10 | > 10 | > 10 | – | > 10 | > 10 | > 10 | –
8 | CCOC(=O)COc1ccc(/C=C/C(=O)c2ccc(OC)cc2)cc1 | 58.4 | 62.5 | 79.8 | 87.4 | > 100 | – | > 100 | 82.7 | 45.4 | > 100 | 62.9 | > 100 | > 100 | 77.3 | > 100 | 85.8 | 61.6 | > 100 | 53.3 | –
9 | CCOC(=O)C(O)(NC(=O)Nc1ccc(F)cc1)C(F)(F)F (configuration not stated) | > 100 | > 100 | > 100 | > 100 | > 100 | – | > 100 | > 100 | > 100 | > 100 | > 100 | > 100 | > 100 | > 100 | > 100 | > 100 | > 100 | – | – | –
10 | O=C1C(N=Nc2ccc(-c3nc4ccccc4o3)cc2)NC(=S)N1c1ccccc1 (configuration not stated) | > 100 | > 100 | > 100 | 85.6 | > 100 | > 100 | – | > 100 | > 100 | > 100 | > 100 | > 100 | > 100 | > 100 | > 100 | > 100 | > 100 | 64.3 | > 100 | –
11 | O=C(CC(C(=O)c1cccs1)c1ccsc1)c1ccsc1 (configuration not stated) | > 100 | > 100 | > 100 | > 100 | > 100 | > 100 | 57.9 | > 100 | > 100 | > 100 | > 100 | 71.2 | > 100 | > 100 | 63.6 | – | > 100 | > 100 | > 100 | –
12 | N#Cc1ccc(OCc2ccc3nc(-c4ccccc4)c(Cl)nc3c2)cc1 | > 100 | > 100 | > 100 | > 100 | > 100 | > 100 | > 100 | > 100 | > 100 | > 100 | > 100 | > 100 | – | > 100 | > 100 | > 100 | > 100 | > 100 | > 100 | –
13 | c1ccc2c(c1)CCN2CCc1c[nH]c2ccccc12 | > 10 | > 10 | > 10 | > 10 | > 10 | > 10 | – | > 10 | > 10 | > 10 | > 10 | > 10 | > 10 | > 10 | > 10 | > 10 | > 10 | > 10 | > 10 | –
14 | Cc1cc(NS(=O)(=O)c2ccc(Nc3c4ccccc4nc4ccc(C(=O)Nc5ccc(S(=O)(=O)N=C(N)N)cc5)cc34)cc2)no1 | > 100 | > 100 | > 100 | > 100 | > 100 | > 100 | – | > 100 | > 100 | > 100 | > 100 | > 100 | > 100 | > 100 | > 100 | > 100 | > 100 | > 100 | > 100 | –
15 | CC(C)CNC(=O)Cn1c2c(c3ccccc31)CCCC2 | > 100 | > 100 | > 100 | > 100 | > 100 | > 100 | 85 | > 100 | > 100 | – | > 100 | > 100 | > 100 | > 100 | > 100 | > 100 | > 100 | > 100 | > 100 | –
16 | COc1ccc(NCC(=O)Nn2c(C)nc3ccc(S(=O)(=O)Nc4ccc(OC)cc4)cc3c2=O)cc1 | > 100 | > 100 | > 100 | > 100 | > 100 | > 100 | – | > 100 | > 100 | > 100 | > 100 | > 100 | > 100 | > 100 | > 100 | > 100 | > 100 | > 100 | > 100 | –
17 | Cc1ccc(C(=O)C#Cc2cn(C3CC(O)C(CO)O3)c(=O)[nH]c2=O)cc1 (configuration not stated) | > 100 | > 100 | > 100 | > 100 | > 100 | > 100 | – | > 100 | > 100 | > 100 | > 100 | > 100 | – | > 100 | > 100 | > 100 | 89.2 | 60 | > 100 | –
18 | O=C1C(=O)N(C2CCCCC2)C(=S)N1C1CCCCC1 | > 100 | > 100 | > 100 | > 100 | > 100 | > 100 | > 100 | > 100 | > 100 | > 100 | > 100 | > 100 | > 100 | > 100 | > 100 | > 100 | > 100 | – | > 100 | –
19 | O=[N+]([O-])/C(C(Cl)=C(Cl)Cl)=C1/OCCS1 | 96.5 | > 100 | 72.4 | 71.5 | 66.4 | > 100 | 36.8 | 71.1 | 40.2 | 50.6 | 47.3 | 87.6 | 77.7 | 61 | 33.6 | 57.2 | – | 36.8 | 40.4 | –
20 | COc1ccc(-c2c(C#N)c(S)n(C3OC(CO)C(O)C(O)C3O)c(=O)c2C#N)cc1 (configuration not stated) | > 100 | > 100 | > 100 | > 100 | > 100 | – | > 100 | > 100 | > 100 | > 100 | > 100 | > 100 | > 100 | > 100 | > 100 | > 100 | > 100 | > 100 | > 100 | 37.3 µM and > 100 µM
21 | Nc1nnc(-c2ccco2)c(-c2ccco2)n1 | > 100 | > 100 | > 100 | > 100 | > 100 | > 100 | > 100 | > 100 | > 100 | > 100 | > 100 | > 100 | > 100 | > 100 | > 100 | > 100 | > 100 | > 100 | – | –
22 | CCOC(=O)C(NC(=O)NC(C(=O)OCC)C(=O)OCC)C(=O)OCC | > 100 | > 100 | > 100 | > 100 | > 100 | – | – | > 100 | > 100 | – | > 100 | > 100 | > 100 | > 100 | > 100 | > 100 | > 100 | > 100 | > 100 | –
23 | CO[C@@H](c1ccccc1)[C@H](O)[C@](O)(c1ccccc1)P(=O)(OC)OC | > 100 | > 100 | > 100 | > 100 | > 100 | > 100 | > 100 | > 100 | > 100 | > 100 | > 100 | > 100 | > 100 | > 100 | > 100 | > 100 | > 100 | > 100 | – | –
24 | O=C1N[C@@H]([C@H](CCCCCO)OC(=O)c2ccccc2)CO1 | > 100 | > 100 | – | > 100 | > 100 | > 100 | > 100 | – | > 100 | > 100 | > 100 | > 100 | > 100 | > 100 | > 100 | > 100 | > 100 | > 100 | > 100 | –
25 | Cc1cc(C2(c3cc(C)c(O)c(C(=O)O)c3)OS(=O)(=O)c3ccccc32)cc(C(=O)O)c1O | > 100 | > 100 | – | > 100 | > 100 | > 100 | > 100 | > 100 | > 100 | > 100 | > 100 | > 100 | > 100 | > 100 | > 100 | > 100 | > 100 | > 100 | > 100 | –
26 | CN(/N=C/c1cccs1)c1ccc([N+](=O)[O-])cc1[N+](=O)[O-] | > 100 | > 100 | > 100 | > 100 | > 100 | > 100 | – | > 100 | > 100 | > 100 | > 100 | > 100 | > 100 | > 100 | > 100 | – | > 100 | > 100 | > 100 | –
